The text below walks through data of ChEMBL document CHEMBL1139092, “Challenges in the development of mGluR5 positive allosteric modulators: the discovery of CPPHA” (Bioorg Med Chem Lett, 2007).

Format in all cases: cell-based
Assay [1] deals with T1, Metabotropic glutamate receptor 5 (Homo sapiens, UniProt P41594). Description: Activity at human mGluR5 expressed in CHO cells assessed as potentiation of glutamate response by FLIPR assay.
Target sequence in this assay (P41594 whole entry): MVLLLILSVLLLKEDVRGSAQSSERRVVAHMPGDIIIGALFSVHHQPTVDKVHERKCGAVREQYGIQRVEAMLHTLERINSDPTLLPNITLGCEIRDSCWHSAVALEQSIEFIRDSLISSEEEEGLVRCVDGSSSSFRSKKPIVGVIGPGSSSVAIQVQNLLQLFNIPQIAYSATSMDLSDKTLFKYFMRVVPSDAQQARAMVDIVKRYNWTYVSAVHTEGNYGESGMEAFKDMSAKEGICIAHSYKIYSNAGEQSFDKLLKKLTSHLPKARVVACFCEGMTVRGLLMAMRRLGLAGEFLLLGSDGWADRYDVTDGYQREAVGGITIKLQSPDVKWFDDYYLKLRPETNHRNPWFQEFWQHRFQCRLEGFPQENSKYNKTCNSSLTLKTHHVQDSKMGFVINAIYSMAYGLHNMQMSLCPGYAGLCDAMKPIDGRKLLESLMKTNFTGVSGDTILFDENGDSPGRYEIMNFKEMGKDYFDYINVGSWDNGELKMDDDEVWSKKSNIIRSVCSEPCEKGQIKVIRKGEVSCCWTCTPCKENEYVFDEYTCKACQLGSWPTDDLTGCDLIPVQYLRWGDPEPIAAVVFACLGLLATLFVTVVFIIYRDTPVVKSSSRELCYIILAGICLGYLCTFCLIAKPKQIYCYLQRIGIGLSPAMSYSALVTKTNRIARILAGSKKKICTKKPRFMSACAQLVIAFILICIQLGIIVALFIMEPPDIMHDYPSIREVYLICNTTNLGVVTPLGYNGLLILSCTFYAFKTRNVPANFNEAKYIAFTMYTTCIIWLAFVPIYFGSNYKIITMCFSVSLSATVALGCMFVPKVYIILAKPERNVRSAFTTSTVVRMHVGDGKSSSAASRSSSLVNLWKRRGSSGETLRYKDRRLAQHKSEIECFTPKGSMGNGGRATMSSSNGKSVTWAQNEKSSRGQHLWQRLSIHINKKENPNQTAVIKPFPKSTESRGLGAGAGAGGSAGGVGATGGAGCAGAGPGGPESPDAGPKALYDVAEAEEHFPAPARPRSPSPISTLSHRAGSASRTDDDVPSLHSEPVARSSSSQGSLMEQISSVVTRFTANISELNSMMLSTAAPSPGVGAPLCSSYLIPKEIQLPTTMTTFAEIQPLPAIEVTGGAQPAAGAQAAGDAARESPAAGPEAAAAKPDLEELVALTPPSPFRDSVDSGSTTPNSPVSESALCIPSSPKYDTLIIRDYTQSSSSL
The target in assay [2] is T1, Metabotropic glutamate receptor 5. Kind of assay: Activity at human mGluR5 expressed in CHO cells assessed as potentiation of glutamate response by FLIPR assay relative to glutamate.
Target sequence in this assay (P41594 21-1212 limits assumed): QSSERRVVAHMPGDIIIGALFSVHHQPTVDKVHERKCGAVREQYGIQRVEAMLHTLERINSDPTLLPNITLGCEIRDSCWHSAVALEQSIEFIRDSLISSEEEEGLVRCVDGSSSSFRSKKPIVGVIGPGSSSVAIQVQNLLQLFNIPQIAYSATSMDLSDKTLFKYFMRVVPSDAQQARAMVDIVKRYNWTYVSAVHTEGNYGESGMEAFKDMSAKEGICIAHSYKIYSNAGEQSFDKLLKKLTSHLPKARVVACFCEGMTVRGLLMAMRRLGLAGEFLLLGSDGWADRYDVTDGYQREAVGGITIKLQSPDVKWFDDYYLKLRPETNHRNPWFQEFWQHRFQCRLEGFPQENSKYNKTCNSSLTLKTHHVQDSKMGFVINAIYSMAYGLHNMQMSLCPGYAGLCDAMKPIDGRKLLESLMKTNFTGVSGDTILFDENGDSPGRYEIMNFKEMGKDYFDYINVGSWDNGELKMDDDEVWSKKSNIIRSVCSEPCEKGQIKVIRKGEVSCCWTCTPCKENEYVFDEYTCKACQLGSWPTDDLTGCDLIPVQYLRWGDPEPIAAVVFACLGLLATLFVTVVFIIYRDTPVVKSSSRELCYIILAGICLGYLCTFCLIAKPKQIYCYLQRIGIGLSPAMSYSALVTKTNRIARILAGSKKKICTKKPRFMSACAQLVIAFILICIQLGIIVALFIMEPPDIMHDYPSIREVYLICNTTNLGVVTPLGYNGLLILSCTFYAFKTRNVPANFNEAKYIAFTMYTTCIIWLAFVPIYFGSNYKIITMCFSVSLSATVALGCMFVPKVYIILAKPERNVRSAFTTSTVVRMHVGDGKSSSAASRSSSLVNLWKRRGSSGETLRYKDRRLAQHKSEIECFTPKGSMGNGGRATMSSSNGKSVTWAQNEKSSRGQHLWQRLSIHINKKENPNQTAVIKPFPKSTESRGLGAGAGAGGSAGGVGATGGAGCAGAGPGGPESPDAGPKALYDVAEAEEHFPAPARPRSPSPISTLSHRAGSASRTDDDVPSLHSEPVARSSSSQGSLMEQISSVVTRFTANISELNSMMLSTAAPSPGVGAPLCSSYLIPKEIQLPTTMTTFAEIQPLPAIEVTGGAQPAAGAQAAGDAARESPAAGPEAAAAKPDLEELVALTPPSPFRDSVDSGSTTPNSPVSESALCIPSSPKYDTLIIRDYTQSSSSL
Assay [3] has as its target Metabotropic glutamate receptor 5 (Rattus norvegicus, UniProt P31424). Kind of assay: Activity at rat mGluR5 expressed in CHO cells assessed as potentiation of glutamate response by FLIPR assay.

Sequence of Metabotropic glutamate receptor 5 (Rattus norvegicus, UniProt P31424) (P31424 whole entry): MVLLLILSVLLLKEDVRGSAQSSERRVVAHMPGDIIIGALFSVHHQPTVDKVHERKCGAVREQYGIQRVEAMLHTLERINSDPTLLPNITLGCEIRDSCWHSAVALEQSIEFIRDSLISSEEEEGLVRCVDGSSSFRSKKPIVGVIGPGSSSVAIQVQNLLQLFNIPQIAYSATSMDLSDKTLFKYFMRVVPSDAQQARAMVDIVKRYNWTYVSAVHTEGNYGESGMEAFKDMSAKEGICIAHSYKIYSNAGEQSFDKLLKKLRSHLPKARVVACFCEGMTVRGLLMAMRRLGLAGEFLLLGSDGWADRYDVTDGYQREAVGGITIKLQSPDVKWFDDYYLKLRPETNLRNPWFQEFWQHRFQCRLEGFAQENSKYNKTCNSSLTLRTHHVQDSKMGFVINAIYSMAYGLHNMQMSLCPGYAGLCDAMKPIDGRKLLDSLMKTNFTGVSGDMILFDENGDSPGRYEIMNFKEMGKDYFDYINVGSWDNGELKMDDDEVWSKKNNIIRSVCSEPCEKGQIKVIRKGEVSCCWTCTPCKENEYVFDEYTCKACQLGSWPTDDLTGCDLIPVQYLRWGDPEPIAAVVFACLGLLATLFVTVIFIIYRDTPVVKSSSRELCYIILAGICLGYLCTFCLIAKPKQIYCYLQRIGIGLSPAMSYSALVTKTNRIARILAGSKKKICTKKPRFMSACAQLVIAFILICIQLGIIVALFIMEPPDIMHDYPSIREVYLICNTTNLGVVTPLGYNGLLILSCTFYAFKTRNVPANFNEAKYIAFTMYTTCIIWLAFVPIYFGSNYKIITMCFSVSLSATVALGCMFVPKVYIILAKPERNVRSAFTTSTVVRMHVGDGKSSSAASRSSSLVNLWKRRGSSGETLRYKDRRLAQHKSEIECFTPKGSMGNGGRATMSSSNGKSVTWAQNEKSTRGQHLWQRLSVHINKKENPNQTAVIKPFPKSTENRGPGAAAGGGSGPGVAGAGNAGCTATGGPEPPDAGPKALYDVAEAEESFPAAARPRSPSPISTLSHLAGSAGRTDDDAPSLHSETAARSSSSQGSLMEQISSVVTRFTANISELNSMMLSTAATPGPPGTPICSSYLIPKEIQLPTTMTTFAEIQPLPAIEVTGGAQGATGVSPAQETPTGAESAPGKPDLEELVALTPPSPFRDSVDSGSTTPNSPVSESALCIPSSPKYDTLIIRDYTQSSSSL

Consider `O=C(Nc1ccccc1CN1C(=O)c2ccccc2C1=O)c1ccccn1`, for which, in assay [1], the EC50 (as a rule, the concentration needed to bring the measured effect to its halfway point) was found to be 13.9 µM. Also, the Activity in assay [2] amounted to 3.4.
As to `O=C(Nc1ccc(Cl)cc1CN1C(=O)c2ccccc2C1=O)c1ccccn1` [listing 1 of 3 here], the EC50 in assay [1] (cho) was 0.25 µM.
For `O=C(Nc1ccc(Cl)cc1CN1C(=O)c2ccccc2C1=O)c1ccccn1` [listing 2 of 3 here], the EC50 in assay [1] was found to be 0.25 µM.
Take `O=C(Nc1ccc(Cl)cc1CN1C(=O)c2ccccc2C1=O)c1ncccc1O`: the EC50 in assay [1] was 0.26 µM; in assay [3], > 1 µM. In assay [2], the Activity was determined as 11.3.
In the same order, the values of `O=C(Nc1ccc(Br)cc1CN1C(=O)c2ccccc2C1=O)c1ccccn1` are 0.75 µM, > 1 µM and 7.6.
With `O=C(Nc1ccc(Cl)cc1CN1C(=O)c2ccccc2C1=O)c1ccccc1[N+](=O)[O-]`, the concentration giving a half-maximal response (EC50) was 5.7 µM in assay [1] and > 1 µM in assay [3]. In addition, the Activity in assay [2] worked out at 2.9.
For `O=C(Nc1ccc(Cl)cc1CN1C(=O)c2ccccc2C1=O)c1ccccc1C(F)(F)F`, the EC50 in assay [1] was 5.7 µM; in assay [3] it was > 1 µM. The Activity in assay [2] is 3.5.
The corresponding values for `O=C(Nc1ccc(Cl)cc1CN1C(=O)c2ccccc2C1=O)c1cccnn1` are > 100 µM, > 1 µM and 0.6.
Take `Cc1ccc2c(c1C)C(=O)N(Cc1cc(Cl)ccc1NC(=O)c1ccccn1)C2=O`: the EC50 in assay [1] was 2.2 µM. Moreover, the Activity in assay [2] came out at 3.7.
In the same order, the values of `CCN(Cc1cc(Cl)ccc1NC(=O)c1ccccn1)C(=O)c1cc(Cl)cc(Cl)c1` are 0.47 µM and 5.9.
In the same order, the values of `COc1ccc(NC(=O)c2ccccn2)c(CN2C(=O)c3ccccc3C2=O)c1` are 1.4 µM and 3.5.
In the case of `COc1cccc(C(=O)Nc2ccc(Cl)cc2CN2C(=O)c3ccccc3C2=O)c1`, the EC50 in assay [1] is 1.5 µM; in assay [3] it was > 1 µM. Also, in assay [2], the Activity worked out at 1.6.
Consider `CCOc1cccc2c1C(=O)N(Cc1cc(Cl)ccc1NC(=O)c1ccccn1)C2=O`, for which the EC50 in assay [1] was determined as 0.28 µM. For the same compound, in assay [2], the Activity was 4.5.
Regarding `O=C(Nc1ccc(Br)cc1CN1C(=O)c2ccc(F)cc2C1=O)c1ccccn1`, the EC50 in assay [1] came to 0.93 µM. Besides, the Activity in assay [2] is 11.1.
In the same order, the values of `O=C(Nc1ccc(F)cc1CN1C(=O)c2ccccc2C1=O)c1ccccn1` are 1.5 µM and 2.6.
Consider `O=C(Nc1ccc(Cl)cc1CN1C(=O)c2ccccc2C1=O)c1ccco1`, for which the EC50 is 2.3 µM in assay [1] and > 1 µM in assay [3]. For the same compound, the Activity in assay [2] was 6.2.
In the case of `COc1ccc2c(c1OC)C(=O)N(Cc1cc(Cl)ccc1NC(=O)c1ccccn1)C2=O`, the EC50 in assay [1] is > 100 µM. For the same compound, the Activity in assay [2] was 0.6.
For the compound `O=C(Nc1ccc(Cl)cc1CN1C(=O)c2ccccc2C1=O)c1cncs1`, the EC50 in assay [1] was 1.9 µM; in assay [3], > 1 µM. Moreover, in assay [2], the Activity was 9.2.
With `O=C(Nc1ccc(Cl)cc1CN1C(=O)c2ccccc2C1=O)c1ccccn1` [listing 3 of 3 here], the Activity in assay [2] came out at 6.8.
As for `CCOc1cccc2c1C(=O)N(Cc1cc(Br)ccc1NC(=O)c1ccccn1)C2=O`, the EC50 in assay [1] was 0.72 µM. The Activity in assay [2] stood at 10.7.
`O=C(Nc1ccc(Cl)cc1CN1C(=O)c2ccccc2C1=O)c1ncccn1`: the results for the EC50 in assay [1] and in assay [3] were 2.1 µM and > 1 µM, respectively. Moreover, the Activity in assay [2] turned out to be 1.3.
As to `O=C(Nc1ccc(Cl)cc1CN1C(=O)c2ccccc2C1=O)c1cccnc1`, the EC50 in assay [1] was 35 µM; in assay [3], > 1 µM. The Activity in assay [2] worked out at 1.8.
For the compound `COc1ccc2c(c1OC)C(=O)N(Cc1cc(Br)ccc1NC(=O)c1ccccn1)C2=O`, the EC50 in assay [1] was > 100 µM. Also, the Activity in assay [2] is 0.6.
As for `O=C(CCc1cc(Cl)ccc1NC(=O)c1ccccn1)c1ccccc1`, the EC50 in assay [1] was 4.5 µM.
For the compound `O=C(/C=C/c1cc(Cl)ccc1NC(=O)c1ccccn1)c1ccccc1`, in assay [1], the EC50 amounted to 1.7 µM. Also, the Activity in assay [2] was determined as 8.
For the compound `COc1ccccc1C(=O)Nc1ccc(Cl)cc1CN1C(=O)c2ccccc2C1=O`, the figures for the EC50 in assay [1] and in assay [3] were > 100 µM and > 1 µM, respectively. In assay [2], the Activity is 0.6.
`O=C(Nc1ccc(Cl)cc1CN1C(=O)c2ccc(F)cc2C1=O)c1ccccn1`: the EC50 in assay [1] was found to be 0.33 µM. In addition, the Activity in assay [2] is 4.6.
For the compound `O=C(Nc1ccc(Cl)cc1CN1C(=O)c2ccccc2C1=O)C1CCCCC1`, the values for the EC50 in assay [1] and in assay [3] were 1.5 µM and > 1 µM, respectively. Moreover, the Activity in assay [2] came to 4.1.
For the compound `Cc1ccc2c(c1C)C(=O)N(Cc1cc(Br)ccc1NC(=O)c1ccccn1)C2=O`, the EC50 in assay [1] was > 100 µM. Besides, in assay [2], the Activity is 0.6.
For `O=C(Nc1ccc(Cl)cc1CN1C(=O)c2ccccc2C1=O)c1ccccc1O`, in assay [2], the Activity stood at 7.1.
As to `O=C(Nc1ccc(Cl)cc1CN1C(=O)c2ccccc2C1=O)c1ccccc1`, the results for the EC50 in assay [1] and in assay [3] were > 100 µM and > 1 µM, respectively. Besides, the Activity in assay [2] turned out to be 0.6.
For `O=C(Nc1cccc(F)c1CN1C(=O)c2ccccc2C1=O)c1ccccn1`, in assay [1], the concentration giving a half-maximal response (EC50) was > 100 µM. In assay [2], the Activity is 0.9.
